# In patent US20260136597A1, “PHARMACEUTICAL COMPOSITION FOR PREVENTING OR TREATING A PERIODONTAL DISEASE OR DISLOCATED TRAUMATIC TOOTH” (HYSENSBIO Co., Ltd., priority 2020, published 2026):
# Key:
# PERIOSTIN = assay: Real-time PCR, periostin gene expression in human periodontal ligament cells; type: cell-based; conditions: hPDL cells, average of three experiments
# Text: Periostin is a protein first discovered in a periodontal ligament and periosteum of a bone, and periostin is expressed in the periodontal ligament and mesenchymal of the developing tooth and is known to be involved in cell adhesion. According to several recent studies, periostin is an important regulator of periodontium formation, promotes collagen fiber production and migration of fibroblast and osteoblast, and it is known to play a pivotal role in the regeneration of periodontal ligament and alveolar bone after periodontal surgery to treat periodontal disease. Therefore, the effect of a peptide of Example 1 on the expression of periostin which is a marker gene for a periodontal ligament differentiation, and the type 3 collagen fiber gene (COL3) was confirmed.
# CAP = conditions: hPDL cells; real-time PCR; average of three experiments
# Description: Human periodontal ligament cells (hPDL cells) were isolated from periodontal ligament tissues from the wisdom teeth of 10 adults (18-22 years old) at Seoul National University Dental Hospital. Specifically, all experiments were performed with the consent of the patient after obtaining approval from the Hospital's Institutional Review Board, a periodontal ligament tissue attached to the root of a wisdom tooth was isolated and cut into double-sided pieces, placed in a 60 mm dish, and covered with a cover slip, and then cultured in Dulbecco's […] Eagle's Medium.
# Total RNA from human periodontal ligament cells was isolated using a TRIzol reagent. cDNA was synthesized using 2 μg of total RNA, 1 μl of reverse transcriptase, and 0.5 μg of oligo (dT). cDNA of synthesized human periodontal ligament cells was used for a real-time polymerase chain reaction using primers shown in Table 2 below. A real-time polymerase chain reaction was performed in ABI PRISM 7500 sequence detection system (Applied Biosystems) using SYBR GREEN PCR Master Mix (Takara, Japan). The real-time polymerase chain reaction was performed at 94° C., 1 min; 95° C., 15 sec-60° C., 34 sec was performed under the condition of repeating 40 cycles. Results were analyzed using a comparative cycle threshold (CT) method.
# Bone sialoprotein (BSP) and dentin matrix protein 1 (DMP1) genes are used as markers for the differentiation of osteoblast and cementoblast and are known as important genes for the calcification of a bone and cementum. In addition, a CAP (cementum attachment protein) gene is expressed in differentiated cementoblast and is known as a gene involved in the cementum attachment of a periodontal ligament fiber bundle.
# BSP = assay: Real-time PCR, BSP gene expression in human periodontal ligament cells; type: cell-based; conditions: hPDL cells, average of three experiments
# Description: Human periodontal ligament cells (hPDL cells) were isolated from periodontal ligament tissues from the wisdom teeth of 10 adults (18-22 years old) at Seoul National University Dental Hospital. Specifically, all experiments were performed with the consent of the patient after obtaining approval from the Hospital's Institutional Review Board, a periodontal ligament tissue attached to the root of a wisdom tooth was isolated and cut into double-sided pieces, placed in a 60 mm dish, and covered with a cover slip, and then cultured in Dulbecco's degenerated Eagle's Medium.
# [1] = system: three-wall periodontal defect; assay: Periodontium regeneration in periodontium damage animal model, histological evaluation; type: in vivo, beagle dogs; conditions: beagle dog, 3 months
# Description: Four beagle dogs (12-16 kg; […]) were anesthetized by inhalation of Geloran, intravenously injected with Zoletil (5 mg/kg) and Xylazine (0.2-0.5 mg/kg), and then treated with Lidocaine (Lidocaine 2% with 1:80,000 epinephrine). The 4th premolar tooth and the 2nd molar tooth were extracted from the mandible of the beagle dog, and then the dog waited for healing for 3 months. After 3 months of healing, three-wall periodontal defect was induced on distal and mesial surfaces of a 1st molar tooth. Then, a periodontal damage of 4×4×4 mm was formed with the buccal and distal bones remaining around the tooth root, the root alveolar bone is securely removed, tooth root planing was performed using a curette, and then an incisor groove was formed using a ½ round bur. Next, an experimental group was transplanted with a collagen sponge (a peptide solution obtained by dissolving a peptide in physiological saline at a concentration of 1 μg/μl was prepared, 50 μl of a peptide solution was added to the EP tube, and then was soaked for 5 minutes to prepare the collagen sponge) including a 50 μl of peptide (SEQ ID NO: 16 of group 2) prepared in Example 1 at a defect region, After the defect, only a negative control (NC) without any treatment and a collagen sponge (prepared by soaking a collagen sponge in 50 μl of physiological saline for 5 minutes) was placed on the inner bone wall of a bone defect and a transplanted negative control (NC+Plug) was sacrificed 3 months later, and histological evaluation was performed. After 3 months, a beagle dog was sacrificed by administering an excessive amount (90-120 mg/kg) of pentobarbital. A tooth of the beagle dog was extracted, fixed with 10% formalin, and then calcium was removed by adding 5% formic acid, molded, and embedded in paraffin, to obtain a tissue section with a thickness of 5 μm. The obtained tissue section was stained with hematoxylin and eosin or collagen stained (Masson's Trichrome Staining) to confirm periodontal ligament regeneration and then analyzed using by an optical microscope equipped with a digital camera (LEICA ICC50 camera, Germany). After extraction of a 4th premolar tooth and a 2nd molar tooth from the mandibles of 4 beagle dogs, they waited for 3 months to heal, and After 3 months of healing, the 3-mural periodontal defect was induced in distal and mesial surfaces of a 1st molar tooth. Then, periodontium damage of 4×4×4 mm was formed with the buccal and distal bones remaining around the tooth root, the root alveolar bone is securely removed, tooth root planing was performed using a curette, and then an incisor groove was formed. Next, the experimental group transplanted a collagen sponge containing 50 μg of the peptide (SEQ ID NO: 16) of Example 1 to the defect region, and after the defect, a negative control (NC) without any treatment and control (NC+Plug) transplanted by placing only a collagen sponge on the inner bone wall of the bone defect was sacrificed 3 months later for histological evaluation.
# [2] = collagen sponge with 50 μg peptide, Masson's trichrome stain, FIG. 6
# [3] = collagen sponge with 50 μg peptide, hematoxylin/eosin, FIG. 5
Sequence,"PERIOSTIN gene expression, relative mRNA expression level compared to the control (Average) (PERIOSTIN)","CAP gene expression, relative mRNA expression level compared to the control (Average) (CAP)","BSP gene expression, relative mRNA expression level compared to the control (Average) (BSP)",other results
KYKQRKKNYK [SEQ ID NO 1],2.092,2.092,2.092,–
KYKQRKRNYK [SEQ ID NO 2],2.361,2.361,2.361,–
KYKQKKKSYK [SEQ ID NO 13],2.525,2.525,2.525,–
KYKQRRKSYK [SEQ ID NO 11],2.362,2.362,2.362,–
KYKQRRKNYK [SEQ ID NO 3],2.572,2.572,2.572,–
KYKQRRRSYK [SEQ ID NO 12],2.211,2.211,2.211,–
KYKQKRKNYK [SEQ ID NO 6],2.705,2.705,2.705,–
KYKQKRRNYK [SEQ ID NO 8],2.021,2.021,2.021,–
KYKQKKRSYK [SEQ ID NO 15],2.620,2.620,2.620,–
KYKQRKKSYK [SEQ ID NO 9],2.211,2.211,2.211,–
KYKQKKKNYK [SEQ ID NO 5],2.67,2.67,2.67,–
KYKQRRRNYK [SEQ ID NO 4],2.702,2.702,2.702,–
"KYKQKRRSYK [SEQ ID NO 16, Group 2 peptide, 8th amino acid serine (S)]",2.403,2.467,2.606,"Alveolar bone regeneration ([1]; collagen sponge with 50 μg peptide at defect, hematoxylin/eosin, FIG. 4): alveolar bone was regenerated in most of the damage periodontium; Incorporation of new periodontal ligament fiber bundle into alveolar bone and cementum [1, 2]: A new periodontal ligament fiber bundle was vertically incorporated in the newly formed alveolar bone and cementum; New cementum-like tissue formation [1, 2]: new cementum-like tissue was observed along a tooth root surface; New periodontal ligament-like tissue formation [1, 2]: new periodontal ligament-like tissue formation was also observed; Incorporation of new periodontal ligament into alveolar bone and cementum [1, 3]: New periodontal ligament was incorporated in the newly formed alveolar bone and cementum; New cementum-like tissue formation [1, 3]: new cementum-like tissue was observed along a tooth root surface; New periodontal ligament-like tissue formation [1, 3]: new periodontal ligament-like tissue formation was also observed"
"KYKQKKRNYK [SEQ ID NO 7, Group 1 peptide, 8th amino acid asparagine (N)]",2.329,2.451,2.215,–
KYKQKRKSYK [SEQ ID NO 14],2.836,2.836,2.836,–
KYKQRKRSYK [SEQ ID NO 10],2.811,2.811,2.811,–
